# Reference: US8980948B2, “Topical application of travoprost for combating hair loss” (Galderma Research & Development, priority 2007, dated 2015)
# Tests used:
# [1] = system: human hair follicles; test: Human hair follicles kept alive: elongation of the hair shaft in organ culture; format: cell-based; settings: 1 μM in DMSO; for Elongation at D 7: cumulative from D0, mean
# Description: Human hair follicles are dissected while keeping the bulb and the connective and epithelial sheaths intact to be cultured in an appropriate medium which makes it possible to provide for the growth of the follicle ex vivo while keeping its structure intact in the growth or anagen phase (Stenn, Ann. N.Y. Acad. Sci., 1991, Dec. 26, 642, xi-xiii). The growth of the hair follicles in vitro is then evaluated using the measurement of elongation of the […].
# Human hair follicles of “terminal” type are isolated from a skin sample resulting from facial surgery (lifting). For this, the skin is cut into pieces of approximately 5×5 mm. The hypodermis is separated from the dermis using a scalpel blade. The hair follicles are isolated from the hypodermal part under a binocular magnifier using fine forceps. Only the hair follicles in the growth phase with a bulb and intact connective and epithelial sheaths are retained for study.
# The hair follicles thus isolated are incubated at 37° C. in a humid atmosphere (5% CO2 and 95% air) and are cultured individually in suspension for 7 days in William's E medium supplemented with 2 mM of L-glutamine, 10 μg/ml of insulin, 10 ng/ml of hydrocortisone and 1% of antibiotics/antimitotics. The culture medium is replaced every 2 or 3 days.
# The travoprost in its acid form is taken up in DMSO at a concentration of 10^−2M and stored at −20° C. until used.
# The surviving hair follicles are treated with the DMSO carrier at a final concentration of 0.1% or with the travoprost acid at a concentration of 1 μM in DMSO (final DMSO concentration also at 0.1%). For each condition, 22 hair follicles are treated individually subsequent to culturing at D0. In the case of a repeated treatment, the travoprost acid at 1 μM in DMSO is replaced at the time of the change in medium, this being done for 7 days. In the case of a single treatment, the travoprost acid at 1 μM DMSO is added to the culture medium just once in the culturing.
# The growth of the hair follicles is determined by the measurement of the elongation of the hair shaft from day D0 to day D7. The elongation of the hair shaft is analyzed using Tina image analysis software. The measurements are carried out on hair follicles isolated at days D0, D3, D5 and D7.
# The mean post-D0 length (by definition: the mean of the lengths measured on the days following D0) is considered:
# The mean post-D0 length is a function: • of the initial length at D0 • of the treatment group • of other factors related to technological or biological variability.
# In this study example, 15 hair follicles (all groups mixed up) out of 66 cultured were discarded.
# It is assumed that the mean post-D0 length is the sum of four components:
# Some measurements, referred to as “aberrant” measurements, can have a highly disruptive effect on the estimation of the effects of the model. A robust ANOVA method is applied with regard to these measurements: “LTS” (Least Trimmed Squares). The principle of the LTS method is as follows: • 1. A definition is made at the start of a fixed proportion p0 of observations which it is desired to ignore in the estimation of the effects (p0=10%) among all the observations present independently of the treatment (observations of the entire study). The corresponding number of observations is denoted n0. • 2. n0 points are selected at random and excluded from the estimation process. • 3. The parameters (effects) of the model are estimated. • 4. Among the observations, excluded and non-excluded, the n0 observations which are the least well predicted by the model are identified. • 5. The n0 least well predicted observations found in stage 4, are, in their turn, excluded from the estimation process. • 6. Stage 3 (estimation) is reverted to until the observations excluded in stage 5 remain unchanged (“convergence”).
# The LTS process is repeated a large number of times (200) starting from different random selections. […]
# [2] = system: C57BL/6 mouse; test: Model of regrowth of the body hair in the C57BL/6 mouse; format: in vivo; settings: for Regrowth of the body hair versus ethanol ΔAUC (D 1-D 22): topical 50 μl
# From the text: The C57BU6 mice are each a particularly useful model for the study of hair growth:
# In C57BU6 mice, the fur is black. In the trunk of the animals, the melanocytes are present solely in the hair follicles and the production of pigment is strictly correlated with the anagen phase of the hair cycle (Slominski A. and Paus R., J. Invest. Dermatol., 10, 90S-97S, 1993).
# In young mice, the hair cycles are not in phase throughout the body but are synchronized in a region according to a rostro-caudal wave (Hale P. A. and Ebling F. J., J. Exp. Zool., 191, 49-62). At 42 days, the hair follicles of the dorsal region enter the telogen phase (Chase H. B. Physiol. Rev., 34, 113-126, 195).
# Thus, after clipping and shaving the backs of C57BU6 mice aged 42 days, the regrowth can be easily visualized before the hair shafts appear at the surface by the grey appearance which the skin assumes. The delay in appearance of the grey color of the skin and the delay in appearance of the hair shafts after clipping and shaving represent criteria which give an account of the rate of entry of the hair follicle into the anagen phase and the rate of growth of the hair shaft. These two criteria will thus be used to evaluate the activity on the hair growth of the compounds tested.
# The male C57BU6 mice are aged 42 days at the beginning of the study. The groups are formed of 10 animals.
# On day D0, the backs of the animals are clipped with Minicut clippers equipped with a shoe (retention of 4 mm of hair shaft) and shaved with a Braun razor.
# The study is carried out over 21 days.
# The hair growth is evaluated according to the criteria defined in:
# Minoxidil in solution in ethanol at 2.5% is used as positive control of the regrowth of the body hair.
# Travoprost in its isopropyl ester form is used in solution in ethanol at 0.01%.
# The travoprost, the minoxidil and the carrier are administered by the topical route using a pipette at the rate of 50 μl per application.
# The minoxidil and the carrier are administered in repeated daily fashion from day 1 to day 21 of the study. Two different treatments are carried out with the travoprost: a first group receiving a single administration on day 1 of the study and a second group receiving five repeated daily and consecutive administrations from day 1 to day 5 of the study.
# The following calculations are carried out: • Mean±SEM of the scores per day for each group treated. • Areas under the curve (AUC) of the regrowth scores per animal from D1 to D22. • Mean±SEM of the AUC values per treatment group. • Percentage of increase in the AUC values for each treated group versus the carrier group.
# The AUC is obtained by summing the areas of the rectangles from the first and the final day of the study. The different treatment groups are compared with the carrier group with regard to this parameter by means of a Student's t-test.
# [3] = single treatment at the time of culturing
compound,measurement,setting,value
O=C(O)CCC/C=C\C[C@@H]1[C@@H](/C=C/[C@@H](O)COc2cccc(C(F)(F)F)c2)[C@H](O)C[C@@H]1O [travoprost acid],elongation in the hair shaft compared with carrier DMSO,[1]; single treatment,greater than that obtained with the carrier DMSO
same,time at which the effect on elongation appears,[1]; single treatment,from the third day of treatment
"CC(C)OC(=O)CCC/C=C\C[C@@H]1[C@@H](/C=C/[C@@H](O)COc2cccc(C(F)(F)F)c2)[C@H](O)C[C@@H]1O [Travoprost, propane-2-yl (Z)-7-[(1R,2R,3R,5S)-3,5-dihydroxy-2-[(1E,3R)-3-hydroxy-4-[3-(trifluoromethyl)phenoxy]but-1-enyl]cyclopentyl]hept-5-enoate]",AUC (D 0-D 7) of hair shaft elongation,[1]; repeated treatment during 7 days,5.82
same,Elongation at D 7,[1]; repeated treatment during 7 days of culturing,1.23 mm
same,AUC (D 0-D 7) of hair shaft elongation,[1]; [3],5.83
same,Elongation at D 7,[1]; [3],1.27 mm
same,Regrowth of the body hair versus ethanol ΔAUC (D 1-D 22),"[2]; 0.01% in ethanol, repeated daily administrations (5 days)",+7%
same,Regrowth of the body hair versus ethanol ΔAUC (D 1-D 22),"[2]; 0.01% in ethanol, single administration on day 1",+31%
same,Regrowth of the body hair versus ethanol ΔAUC (D 1-D 22),"[2]; 0.01% in ethanol, single administration on day 1, listed as travoprost",31%
same,regrowth of the body hair in comparison with the carrier,"[2]; 0.01%, repeated daily and consecutive administrations for 5 days",do not accelerate the regrowth of the body hairs
same,regrowth of the body hair in comparison with the carrier,"[2]; 0.01%, single administration",significantly accelerates the regrowth of the body hair
"Nc1cc(N2CCCCC2)nc(N)[n+]1[O-] [Minoxidil, 2,4-diamino-6-piperidinopyrimidine 3-oxide]",Regrowth of the body hair versus ethanol ΔAUC (D 1-D 22),"[2]; 2.5% in ethanol, repeated daily administrations (21 days)",+34%
same,Regrowth of the body hair versus ethanol ΔAUC (D 1-D 22),"[2]; 2.5% in ethanol, repeated daily administrations (21 days), listed as minoxidil",30%
same,regrowth of the body hair in comparison with the carrier,"[2]; 2.5%, repeated daily administration for 21 days",accelerates the regrowth of the body hair
